According to US20090317419A1, “Tetramers” (Duke University, priority 2008, published 2009):
Ends that are not written are not given here. * marks the point of attachment. Biotin = O=C1N[C@H]2[C@H](CS[C@H]2CCCCC(=O)*)N1

What was measured:
[1] = gp41 HR2 peptide immunization, serum anti-2F5 epitope Ab ELISA, C57BL/6; format: in vivo, C57BL/6 mice; conditions: C57BL/6, peptide in Emulsigen + oCpG, i.p., ELISA 10 days after each immunization
Method: (§1) Peptide immunogen formulation, dose, route of immunization, and immunization schedule. The peptide immunogen used was a gp41 heptad repeat-2 (HR2) DP 1 78Q16L peptide ([…]), synthesized and purified from Primm, and verified to be >95% purified as determined by mass spectrometry. Lyophilized peptide immunogens stored at 4° C. (Primm Biotechnology) were reconstituted by dissolving in DMSO at 8 mg/ml and bringing up to 1 mg/ml in saline. Adjuvanting was done by dissolving mouse oCpG, (5′-[…]-3′; Midland Certified Reagent Company) in saline at 1 mg/ml and first mixing with Oil/water Emulsigen (MVP laboratories) in saline, then with peptide, such as to create a final mixture of 50 μg/ml oCpG, 125 μg/ml peptide, 10% Emulsigen (for i.p. immunizations) and 200 μg/ml oCpG, 500 μg/ml peptide, 10% Emulsigen (for i.m. immunizations). Immunization primes and boosts were all done at a single site intraperitoneally using a volume of 200 μl of the above formulation, such that mice in all instances were injected with 25 μg peptide and 10 μg oCpG. Mice were primed for 10 days and then boosted four times, every 14 days.
(§2) Cell isolation, serum collection, and PBMC isolations.
(§3) ELISA assays. […] Optical density was read at 405 nm with a BioRad 680 microplate reader. […]

[2] = gp41 HR2 peptide immunization, serum anti-2F5 epitope Ab ELISA, BALB/c; format: in vivo, BALB/c mice; conditions: peptide in Emulsigen + oCpG, i.p., ELISA 10 days after each immunization
Method: as §1, §2, §3

[3] = system: antibody coated beads (P3X63/Ag8, A32, 7B9, F39F, 7B2, 13H11, 2F5); conditions: flow cytometry, all antibody coated beads tested
Method: (§4) Antibody-coated beads. Carboxyl-polystyrene beads (3.0-3.4 μm) (Spherotech, Inc., Lake Forest, Ill.) were resuspended in 0.01 M sodium acetate buffer (pH 5.0) and reacted (20° C.×1 hr) with 1-ethyl-3-(3-dimethylaminopropyl) carbodiimide hydrochloride (EDC) (Sigma-Aldrich, Co., St. Louis, Mo.) at a ratio of 3.1 mg beads to 1 mg EDC. Beads were washed with sodium acetate buffer, resuspended in a minimal volume before adding purified mAb in the same buffer (ratio of 16 mg beads to 1 mg mAb), incubated (20° C.×2 hrs), then washed with sodium acetate buffer. Beads were resuspended at 5% in PBS containing 1% bovine serum albumin and 0.02% sodium azide.
(§5) Use of antibody-coated beads and cell lines for tetramer quality control. Tetramer stocks were diluted to twice the desired final concentration in PBS containing 1% BSA. An equal volume of beads or cells at 5×10^5 up to 2×10^6 per sample were mixed with tetramer and incubated (4° C.×30 min). Beads or cells were washed with PBS+1% BSA before being fixed in 2% methanol-free formaldehyde (Polysciences, Inc, Warrington, Pa.) in PBS. Samples were stored at 4° C. prior to being analyzed by flow cytometry (BD LSR II, Becton Dickinson, Mountain View, Calif.). Data were analyzed using FlowJo (Tree Star, Ashland, Oreg.). For tetramer titration 40-80 ng tetramer per 10^6 cells/beads was serially diluted over 8-12 points. Optimal concentrations determined by this method were used for subsequent experiments. For cold competition experiments the incubation step was performed by staining with 10-fold excess unlabeled tetramer (4° C.×30 min) prior to the addition of APC-labeled tetramer. For cell dilution experiments, a mixture of mAb cell lines was made and then 1:10 serial dilutions of cells prepared. For cross competition experiments, mixtures of cells were prepared and then stained singly with anti-IgG reagents or tetramer, or the cells were doubly stained with both reagents either sequentially or concurrently.

[4] = system: total naïve splenic BALB/c B cells; conditions: APC-labeled tetramer
Method: (§6) Cell isolation, serum collection, and PBMC isolations. Heparinized or non-heparanized blood was collected sub-mandibularly 10 days after immunizations. For preparation of peripheral blood lymphocytes for B cell tetramer analysis, PBMC were isolated from blood collected in heparinized tubes (0.2 ml) using Lympholyte M (Cederlane). For Luminex and ELISA assays, sera was isolated from non-heparanized blood and stored at −20° C. until use. Spleen, bone marrow (BM), and peritoneal cavity (PerC) cells were also collected. For most immunizations, tissues were harvested after the 4th boost, except for kinetic studies, in which tissues from mice were harvested after 1, 3 or 7 days after a single immunization. For BM preparations, femora and tibiae were removed, aspirated with tissue medium using 23 gauge needles, filtered with 70 μm cell strainers (BD labware), and RBC-depleted using Tris-buffered ammonium chloride lysis. For splenocyte preparation, spleens were harvested and dissociated into single-cell suspensions either by passage through 70 μm cell strainers in tissue medium or by using frosted glass slides, and blood erythrocytes were depleted with ammonium chloride lysis. For isolation of peritoneal cells, peritoneal cavities of sacrificed mice were lavaged by injection with 10 ml of PBS, followed by gentle massage of the abdomen, and withdrawal of the peritoneal exudates. BM, splenic, and peritoneal single cell suspensions were centrifuged at 1500 rpm for 5 min and resuspended in 5, 10, and 1 ml of tissue media, respectively, for cell counts and immunofluorescence staining. Cell counts were performed in duplicate on a Coulter ZI Dual Threshold Cell Counter (Coulter).
(§7) Antibodies and flow cytometry. Immunofluorescent staining of single cell suspensions (≧2×10^6) was conducted using pre-mixed combinations of fluorochrome-labeled antibodies and APC-conjugated B cell tetramers at empirically-determined optimal concentrations. All antibodies were from BD unless otherwise stated. […] Other reagents included biotinylated antibodies against dump channel markers: Thy1 (Ox7; Abcam), F4/80 (BM8; Abcam), CD11c (clone HL3), Gr-1 (clone RB6-8C5), TER-119, and NK-1.1 (clone PK136), secondary staining SA-Texas Red conjugate; v-amine live/dead violet dye (Molecular Probes), and Fc block (anti-CD16/32; clone 2.4G2).
(§8) Staining was conducted at 4° C. in several sequential steps in FACS staining buffer (1×PBS with 2% FCS, 0.1% NaN3), washing twice between steps. First, cells were incubated with v-amine live/dead dye for 15 min. Next, cells were stained with APC-labeled tetramers for 30 min. Where applicable, this was preceded by addition of cold tetramer at 10 fold molar excess for 1 h. Finally, cells were stained with Fc block for 30 min, followed by incubation with combinations of primary antibody cocktails for 30 min, and secondary staining with SA-Texas Red for 30 min.
(§9) Data were acquired using an LSRII flow cytometer and Cell Quest software (BD Immunocytometry systems). A minimum of 250000 events were acquired per sample. FACS Analysis was performed using FlowJo software (Tree Star). For analysis, single cells were positively gated based on their forward scatter height vs. forward scatter area and side scatter height vs. side scatter area profiles, lymphocytes were then positively gated based on their forward and side scatter profile (live lymphocyte gate), residual dead cells were excluded with negative gating on v-amine live/dead dye, and all irrelevant non-B cells were excluded with negative gating on dump markers Thy1, F4/80, CD11c, Gr-1, TER-119, and NK-1.1.

[5] = system: mAb cell lines P3X63/Ag8, F39F, 7B2, 13H11; conditions: flow cytometry, all Ig+ cell lines tested
Method: as §5

[6] = system: V3 loop mAbs 7B9 and F39F on beads; conditions: flow cytometry
Method: as §4, §5

[7] = system: total naïve splenic C57BL/6 B cells; conditions: C57BL/6, APC-labeled tetramer
Method: as §6, §7, §8, §9

mAb F39F (anti-gp120 V3) = conditions: SPR, mAb F39F captured, 25° C., PBS pH 7.4
Method: Surface Plasmon Resonance (SPR) measurements of tetramer binding to peptide epitopes. Tetramer binding assays were carried out on a BIAcore 3000 (BIAcore/GE Healthcare, Piscataway, N.J.) instrument using mAbs against each specific B cell epitope.
Each mAb (about 1000 RU) was first captured on anti-human Fc mAb (Pierce, Rockford, Ill.) immobilized on a CM5 sensor chip. Approximately 3000 RU of anti-human Fc mAb was covalently coupled to each flow cell of the sensor chip as described before (Alam et al, Journal of Immunology 178:4424-4435 (2007)). Each B cell tetramer was injected over its epitope specific mAb or a control surface immobilized with irrelevant mAb. For each tetramer binding curve, non-specific binding signals obtained from the control surface were subtracted. The binding assay was monitored at 25° C. and using PBS, pH 7.4, as the running buffer. The BIAevaluation 3.0 software (BIAcore/GE Healthcare, Piscataway, N.J.) was used for SPR binding data analyses.

[8] = system: mAb 7B9 (anti-gp120 V3 62.19); conditions: SPR, mAb 7B9 captured
F39F cells = conditions: flow cytometry
Method: as §5

[9] = system: mixture of F39F cells and P3X63/Ag8 cells; conditions: 6% F39F cells, 94% P3X63/Ag8 cells; sequential or simultaneous staining
Method: as §5

Substance | anti-2F5 serum Ab titers [1] | anti-2F5 serum Ab response [2] | binding to any antibody on beads [3] | binding to total naïve splenic B cells [4] | binding to mAb cell lines [5] | binding to antibody-coated beads [6] | binding to total naïve splenic B cells [7] | koff (mAb F39F (anti-gp120 V3)) [s^−1 × 10^−3] | kon (mAb F39F (anti-gp120 V3)) [M^−1s^−1 × 10^3] | koff [8] [s^−1 × 10^−3] | kon [8] [M^−1s^−1 × 10^3] | binding to mAb cell line (F39F cells) | effect of PE labeled anti-IgG heavy chain reagent on tetramer binding [9]
enfuvirtide | no appreciable anti-2F5 serum Ab titers | robust anti-2F5 serum Ab responses |  |  |  |  |  |  |  |  |  |  | 
Biotin-GGGGGDWEYSVWLSN [dsDNA mimic tetramer] |  |  | did not bind | no significant binding above background | no cell line bound |  |  |  |  |  |  |  | 
Biotin-GGGTRPNNNTRKSIHIGPGRAFYATE [62.19 V3 tetramer] |  |  |  | minimal binding |  | bound to both V3 loop mAbs 7B9 and F39F | minimal binding | 0.60 | 60.5 | 0.19 | 35.6 | bound | does not inhibit
